# Measured values: paper PMC5011342, “A high throughput drug screening assay to identify compounds that promote oligodendrocyte differentiation using acutely dissociated and purified oligodendrocyte precursor cells” (BMC Research Notes, 2016)
# Like-named read-outs stand apart in the source and are kept apart here.
# Legend:
# [1] = tested on: acutely dissociated and purified rat OPCs; assay: Acute OL differentiation assay (MBP expression/cell, immunofluorescent image quantification); assay type: cell-based; conditions: sheet "All OLga data"
# Description: In order to identify compounds with the potential to promote OL differentiation in vivo and thereby enhance remyelination, we first wanted to establish an in vitro assay system that would closely mimic conditions in vivo. To do this, we started by using OPCs acutely isolated from postnatal day 6–7 (P6–7) rat brains by O4 immunopanning. […] OPCs were plated directly onto a biological substrate (PDL/laminin) in 96-well view plates at moderate density to allow for sufficient room to expand processes during differentiation. We plated cells in serum-free medium lacking OPC mitogens (no PDGF or FGF) to allow a basal level of OL differentiation to commence, and as a positive control added thyroid hormone (T3, 40 ng/ml) to accelerate differentiation (Fig. 1, flow scheme).
# Fig. 1 Flow scheme of the acute OL differentiation assay. a Purified oligodendrocyte precursor cells (OPCs) were cultured from P7 rat cortex and plated into PDL/laminin pre-coated 96-well plates. b One hour later test compounds were added. c OPC cultures with compound were maintained in culture for an additional 4 days. d On the 5th day with compound, cells were fixed and immunostained with anti-MBP antibodies and DAPI. e Images were acquired with automated fluorescence microscopy and scored phenotypically for OL differentiation (see “Methods” section)
# To quantify the extent of OL differentiation occurring in treatment conditions, we measured the overall amount of MBP expression/cell (see “Methods” section). Figure 2a depicts the mask created over MBP staining under which the MBP expression was quantified. […]
# All animal work was carried out in strict accordance with the recommendations in the Guide for the Care and Use of Laboratory Animals of the National Institutes of Health. The protocol was approved by the Institutional Use and Care and Use Committee at the Molecular Medicine Research Institute (Sunnyvale, CA). Animals used for OPC isolation in these studies were euthanized by decapitation. OPCs from brains of P6-P7 Sprague–Dawley rat pups (Charles River, Wilmington, MA, USA) were enriched by immunopanning as previously described (Dugas et al. 2006). Briefly, single cell suspensions were obtained from papain-digested neonatal brains and depleted of mature glial cells by successive panning with RAN-2- and GalC-coated plates, followed by enrichment for OPCs using O4-coated plates. OPCs were plated in differentiation media (DMEM, 100 U/ml Penicillin/100 µg/ml streptomycin, 2 mM L-glutamine, 1 mM Na pyruvate, 5 µg/ml insulin, 5 µg/ml N-acetyl-L-cysteine, 1× trace elements B,10 ng/ml d-Biotin, 100 µg/ml BSA, 100 µg/ml apo-transferrin, 16 µg/ml putrescine, 60 ng/ml progesterone, 40 ng/ml sodium selenite 5 ng/ml forskolin, 10 ng/ml CNTF, 1 ng/ml NT-3).
# Acutely enriched OPCs were plated in differentiation media at 5000 cells/well into PDL/laminin coated 96-well view plates and centrifuged at 200×g to facilitate cell attachment, survival, and even distribution of OPCs. OPCs were pre-incubated for 1–2 h at 37 °C in 10 % CO2, followed by the addition of test compounds in quadruplicate. Controls were added in eight replicate wells, negative control = 0.1 % DMSO; positive control = 40 ng/ml T3. The day of OPC plating was considered DIV0. On DIV4, cells were fixed, immunostained for myelin basic protein (MBP) expression, imaged and quantified as described below.
# expanded OPCs = assay: cells; conditions: for viability at 0.1 µM / viability at 1 µM / viability at 10 µM: Rattus norvegicus, 72 h
# Description: Having established a consistent assay for measuring OL differentiation in vitro, the next step was to utilize this assay to assess the ability of a wide array of compounds to promote OL differentiation. Prior to library screening, we first established the maximum non-toxic dose of each compound in the library. […] Therefore, we added each compound in the NIH clinical collection (NCC) library to OPCs at 10, 1, and 0.1 µM concentrations. Three days later, we assessed viability of the treated cells by measuring AlamarBlue fluorescence, a measure of cell viability (see “Methods” section). […] Appropriately, we established three sets of screening concentrations for library compounds: non-toxic compounds were tested at 10 and 2 µM, slightly toxic compounds (only toxic at 10 µM) were tested at 2 and 0.4 µM, and very toxic compounds were tested at 0.4 and 0.08 µM.
# OPCs were expanded in vitro by seeding into PDL-coated tissue culture flasks at 1000–2000 cells/cm^2 in differentiation media supplemented with 10 ng/ml PDGF-AA. Proliferating OPCs were fed every 2–3 days and supplemented with 2–3× concentration of PDGF as needed to prevent OPC differentiation. After 6–7 days of proliferation, OPCs were harvested by trypsinization, plated into PDL-coated 96-well Falcon plates and centrifuged at 200×g to facilitate cell attachment, survival, and even distribution of cells. Expanded OPCs were seeded in differentiation media at 10,000 cells/well and incubated for 2 h at 37 °C, 10 % CO2 prior to addition of compounds. The NCC library was diluted and added to cells at 10, 1, and 0.1 µM; each concentration was tested in quadruplicate. As a positive control for the induction of toxicity, 5 ng/ml tunicamycin was added to 8 wells in each plate. Three days later, a 1:10 dilution of alamarBlue® (AB) was added to each well and cells were incubated 4 h at 37 °C, 10 % CO2. AB fluorescence was measured using a PerkinElmer Victor II fluorescence microplate reader (PerkinElmer, Waltham, MA) with 560 nm excitation/590 nm emission filters. For library screening, the highest concentration of each compound was adjusted to a minimally toxic concentration based on this toxicity data. Compounds were additionally tested at a second concentration that was 1/5th of the top concentration. The final concentration of DMSO in each well was 0.1 %.
# [2] = Rattus norvegicus, test compound at 2 uM, NCC library screen, relative to quetiapine, read-out: 2 uM (% Quet)
# [3] = Rattus norvegicus, test compound at 10 uM, NCC library screen, relative to quetiapine, read-out: 10 uM (% Quet)
# [4] = alamarBlue viability of expanded OPCs, compound at 0.1 µM, relative to DMSO control
# [5] = alamarBlue viability of expanded OPCs, compound at 1 µM, relative to DMSO control
# [6] = alamarBlue viability of expanded OPCs, compound at 10 µM, relative to DMSO control
# [7] = read-out: 0.1 µM (% DMSO), alamarBlue viability, NCC library compound at 0.1 µM, sheet "All Tox data"
# [8] = read-out: 1 µM (% DMSO), alamarBlue viability, NCC library compound at 1 µM, sheet "All Tox data"
# [9] = read-out: 10 µM (% DMSO), alamarBlue viability, NCC library compound at 10 µM, sheet "All Tox data"
# [10] = alamarBlue viability, NCC library compound at 0.1 µM, sheet "All Tox data"
# [11] = alamarBlue viability, NCC library compound at 1 µM, sheet "All Tox data"
# [12] = alamarBlue viability, NCC library compound at 10 µM, sheet "All Tox data"
# [13] = Rattus norvegicus, 2 uM test compound, relative to quetiapine, read-out: OL differentiation, 2 uM (% Quet)
# [14] = Rattus norvegicus, 10 uM test compound, relative to quetiapine, read-out: OL differentiation, 10 uM (% Quet)
# [15] = Rattus norvegicus, test compound at 2 uM, MBP expression relative to quetiapine, NCC library screen, read-out: 2 uM (% Quet)
# [16] = Rattus norvegicus, test compound at 10 uM, MBP expression relative to quetiapine, NCC library screen, read-out: 10 uM (% Quet)
smiles,measurement,setting,value
O=C(O)CCCc1ccccc1 [4-Phenylbutyric acid],activation at 2 µM,[1]; [2],9%
same,activation at 10 µM,[1]; [3],-4.1%
same,0.1 µM (% DMSO),expanded OPCs; [4],90.4 % DMSO
same,1 µM (% DMSO),expanded OPCs; [5],91.7 % DMSO
same,10 µM (% DMSO),expanded OPCs; [6],104.6 % DMSO
O=c1[nH]cc(F)c(=O)[nH]1 [5-Fluorouracil],activation at 0.08 µM,"[1]; Rattus norvegicus, test compound at 0.08 uM, NCC library screen, relative to quetiapine, read-out: 0.08 uM (% Quet)",-10.8%
same,activation at 0.4 µM,"[1]; Rattus norvegicus, test compound at 0.4 uM, NCC library screen, relative to quetiapine, read-out: 0.4 uM (% Quet)",-21.3%
same,0.1 µM (% DMSO),expanded OPCs; [4],80.9 % DMSO
same,1 µM (% DMSO),expanded OPCs; [5],26.6 % DMSO
same,10 µM (% DMSO),expanded OPCs; [6],12.2 % DMSO
COc1ccc2[nH]cc(CCN)c2c1 [5-Methoxytryptamine],activation at 2 µM,[1]; [2],2.6%
same,activation at 10 µM,[1]; [3],4.2%
same,viability at 0.1 µM,expanded OPCs; [7],82.9%
same,viability at 1 µM,expanded OPCs; [8],83.6%
same,viability at 10 µM,expanded OPCs; [9],78.8%
CCCCCCCCCOc1ccc2[nH]cc(CCN)c2c1 [5-Nonyloxytryptamine],0.08 uM (% Quet),"[1]; test compound at 0.08 uM, NCC library screen, relative to quetiapine",-24.6 % Quet
same,0.4 uM (% Quet),"[1]; test compound at 0.4 uM, NCC library screen, relative to quetiapine",-339.9 % Quet
same,0.1 µM (% DMSO),expanded OPCs; [10],59.8 % DMSO
same,1 µM (% DMSO),expanded OPCs; [11],9.3 % DMSO
same,10 µM (% DMSO),expanded OPCs; [12],8.5 % DMSO
Fc1cncnc1 [5-fluoropyrimidine],activation at 2 µM,[1]; [13],-16.3%
same,activation at 10 µM,[1]; [14],-9.2%
same,viability at 0.1 µM,expanded OPCs; [7],89.9%
same,viability at 1 µM,expanded OPCs; [8],85.6%
same,viability at 10 µM,expanded OPCs; [9],80.4%
Nc1ccc2cn[nH]c2c1 [6-Aminoindazole],2 uM (% Quet),"[1]; test compound at 2 uM, NCC library screen, relative to quetiapine",-23.3 % Quet
same,10 uM (% Quet),"[1]; test compound at 10 uM, NCC library screen, relative to quetiapine",-40.9 % Quet
same,0.1 µM (% DMSO),expanded OPCs; [10],85.3 % DMSO
same,1 µM (% DMSO),expanded OPCs; [11],87.5 % DMSO
same,10 µM (% DMSO),expanded OPCs; [12],73.6 % DMSO
O=[N+]([O-])c1cccc2cn[nH]c12 [7-Nitroindazole],activation at 2 µM,[1]; [2],-7.1%
same,activation at 10 µM,[1]; [3],5.7%
same,viability at 0.1 µM,expanded OPCs; [7],84.2%
same,viability at 1 µM,expanded OPCs; [8],88.9%
same,viability at 10 µM,expanded OPCs; [9],89.1%
CCCCC/C=C\C/C=C\C/C=C\C/C=C\CCCC(=O)Nc1ccc(O)cc1 [AM 404],"OL differentiation, 0.08 uM (% Quet)","[1]; 0.08 uM test compound, relative to quetiapine",-17.8 % Quet
same,"OL differentiation, 0.4 uM (% Quet)","[1]; 0.4 uM test compound, relative to quetiapine",-184.2 % Quet
same,0.1 µM (% DMSO),"expanded OPCs; alamarBlue viability of expanded OPCs, compound at 0.1 µM, sheet All Tox data",87.9 % DMSO
same,1 µM (% DMSO),"expanded OPCs; alamarBlue viability of expanded OPCs, compound at 1 µM, sheet All Tox data",33.1 % DMSO
same,10 µM (% DMSO),"expanded OPCs; alamarBlue viability of expanded OPCs, compound at 10 µM, sheet All Tox data",11.4 % DMSO
C[C@H]1O[C@H](O[C@H]2[C@H](O)[C@@H](O)[C@@H](O[C@H]3[C@H](O)[C@@H](O)C(O)O[C@@H]3CO)O[C@@H]2CO)[C@H](O)[C@@H](O)[C@@H]1N[C@H]1C=C(CO)[C@@H](O)[C@H](O)[C@H]1O (stereo partly drawn) [Acarbose],activation at 2 µM,[1]; [13],17.5%
same,activation at 10 µM,[1]; [14],-6.6%
same,viability at 0.1 µM,"expanded OPCs; read-out: 0.1 µM (% DMSO), alamarBlue viability of expanded OPCs, compound at 0.1 µM, sheet All Tox data",88.8%
same,viability at 1 µM,"expanded OPCs; read-out: 1 µM (% DMSO), alamarBlue viability of expanded OPCs, compound at 1 µM, sheet All Tox data",92%
same,viability at 10 µM,"expanded OPCs; read-out: 10 µM (% DMSO), alamarBlue viability of expanded OPCs, compound at 10 µM, sheet All Tox data",93.2%
CCCC(=O)Nc1ccc(OCC(O)CNC(C)C)c(C(C)=O)c1 (stereo not drawn) [Acebutolol],activation at 2 µM,[1]; [15],7.8%
same,activation at 10 µM,[1]; [16],-5.4%
same,0.1 µM (% DMSO),expanded OPCs; [4],94.3 % DMSO
same,1 µM (% DMSO),expanded OPCs; [5],111.2 % DMSO
same,10 µM (% DMSO),expanded OPCs; [6],112.7 % DMSO
CC(=O)Nc1nnc(S(N)(=O)=O)s1 [Acetazolamide],activation at 2 µM,[1]; [2],-8.7%
same,activation at 10 µM,[1]; [3],-43.8%
same,0.1 µM (% DMSO),expanded OPCs; [4],89.2 % DMSO
same,1 µM (% DMSO),expanded OPCs; [5],90.6 % DMSO
same,10 µM (% DMSO),expanded OPCs; [6],87.5 % DMSO
CC(=O)OCC[N+](C)(C)C [Acetylcholine],activation at 2 µM,[1]; [15],-4.4%
same,activation at 10 µM,[1]; [16],-7.7%
same,0.1 µM (% DMSO),expanded OPCs; [4],87.6 % DMSO
same,1 µM (% DMSO),expanded OPCs; [5],92.6 % DMSO
same,10 µM (% DMSO),expanded OPCs; [6],87.0 % DMSO
